Laboratory results: patent EP1154795B1, “MEANS FOR TREATING AND DIAGNOSING RESTLESS LEGS SYNDROME” (priority 1998, dated 2000)

System: patients with light to moderate RLS/PMLS
Test: Double-blind, placebo controlled parallel group study with donepezil
Assay type: in vivo
Source text: Double-blind, placebo controlled parallel group study with donepezil. In a double-blind, placebo controlled parallel study with the CEI donepezil we studied 9 patients with light to moderate RLS/PMLS (PLM index, PLMI = 3-17).

[1] = 5mg once daily, evening dose for 21 days

COc1cc2c(cc1OC)C(=O)C(CC1CCN(Cc3ccccc3)CC1)C2 (stereo not drawn) [Donepezil, donepezil]
change in total sleep time after treatment [1]: no significant change
increase of the proportion of rapid eye movement sleep after treatment [1]: approximately 30%
side effects during the study period [1]: No side effects were reported
mean reduction of PLMI (5mg once daily, evening dose for 21 days, from 8.3 to 5.3): approximately 36%
Marked reduction of PLMI (reduction in 5 patients) (5 of 9 patients, minor change in 3 patients, one patient increased PLMI, 5mg once daily for 21 days): 57-100%
mean PLMI after treatment (9 patients (PLMI = 3-17), 5mg once daily, evening dose for 21 days, mean PLMI reduced from 8.3): 5.3
